Test results as given in patent US7138361B2, “Herbicidal heterocycles” (E. I. du Pont de Nemours and Company, priority 2000, dated 2006).

Columns and labels:
Experiment in all cases: Test C preemergence
Assay type in all cases: in vivo
Sunflower [1] = conditions: Rate 125 g/ha, scale 0 to 100, 0 no effect, 100 complete control
[2] = tested on: common ragweed (Ambrosia elatior); conditions: for Plant response rating (0 to 100), Ragweed, Common: Rate 250 g/ha, visual evaluation after 12 to 14 days
How it was run: (§1)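 Response scores (0 no effect to 100 complete control) came from visual comparison with untreated controls 12 to 14 days after treatment. Preemergence application was made to seeded soil; postemergence, to plants at the 1- to 4-leaf stage.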

[3] = tested on: morningglory (Ipomoea hederacea); conditions: for Plant response rating (0 to 100), Morningglory: Rate 250 g/ha, visual evaluation after 12 to 14 days
How it was run: as §1

[4] = tested on: Surinam grass (Brachiaria decumbens); conditions: for Plant response rating (0 to 100), Surinam grass: Rate 250 g/ha, visual evaluation after 12 to 14 days
How it was run: as §1

corn (Zea mays) = conditions: for Plant response rating (0 to 100), Corn: Rate 250 g/ha, visual evaluation after 12 to 14 days
How it was run: as §1

Sunflower [5] = tested on: Sunflower
[6] = tested on: pigweed (Amaranthus retroflexus); conditions: for Plant response rating (0 to 100), Pigweed: Rate 250 g/ha, visual evaluation after 12 to 14 days
How it was run: as §1

[7] = tested on: velvetleaf (Abutilon theophrasti); conditions: for Plant response rating (0 to 100), Velvetleaf: Rate 250 g/ha, visual evaluation after 12 to 14 days
How it was run: as §1

[8] = tested on: johnsongrass (Sorghum halepense); conditions: for Plant response rating (0 to 100), Johnsongrass: Rate 250 g/ha, visual evaluation after 12 to 14 days
How it was run: as §1

soybean (Glycine max) = conditions: for Plant response rating (0 to 100), Soybean: Rate 250 g/ha, visual evaluation after 12 to 14 days
How it was run: as §1

[9] = tested on: yellow nutsedge (Cyperus esculentus); conditions: for Plant response rating (0 to 100), Nutsedge: Rate 250 g/ha, visual evaluation after 12 to 14 days
How it was run: as §1

[10] = tested on: bermudagrass (Cynodon dactylon); conditions: for Plant response rating (0 to 100 where 0 is no effect and 100 is complete control), Bermudagrass: Rate 250 g/ha, visual evaluation after 12 to 14 days
How it was run: as §1

[11] = tested on: crabgrass (Digitaria sanguinalis); conditions: for Plant response rating (0 to 100), Crabgrass: Rate 250 g/ha, visual evaluation after 12 to 14 days
How it was run: as §1

[12] = tested on: lambsquarters (Chenopodium album); conditions: for Plant response rating (0 to 100), Lambsquarters: Rate 250 g/ha, visual evaluation after 12 to 14 days
How it was run: as §1

[13] = tested on: woolly cupgrass (Eriochloa villosa); conditions: for Plant response rating (0 to 100), Cupgrass, Woolly: Rate 250 g/ha, visual evaluation after 12 to 14 days
How it was run: as §1

[14] = tested on: giant foxtail (Setaria faberii); conditions: for Plant response rating (0 to 100), Foxtail, Giant: Rate 250 g/ha, visual evaluation after 12 to 14 days
How it was run: as §1

Nightshade = tested on: Nightshade
[15] = tested on: cocklebur (Xanthium strumarium); conditions: for Plant response rating (0 to 100), Cocklebur: Rate 250 g/ha, visual evaluation after 12 to 14 days
How it was run: as §1

[16] = tested on: goosegrass (Eleusine indica); conditions: for Plant response rating (0 to 100), Goosegrass: Rate 250 g/ha, visual evaluation after 12 to 14 days
How it was run: as §1

kochia (Kochia scoparia) = conditions: for Plant response rating (0 to 100), Kochia: Rate 250 g/ha, visual evaluation after 12 to 14 days
How it was run: as §1

[17] = Preemergence, Rate 500 g/ha, scale 0 to 100
[18] = Rate 62 g/ha, scale 0 to 100, 0 no effect, 100 complete control
[19] = preemergence, Rate 125 g/ha, scale 0 to 100, 0 no effect, 100 complete control
[20] = preemergence, Rate 31 g/ha, scale 0 to 100

CC(C)(C)c1ccn(C2CCN(c3cccc(Br)c3)C2=O)n1 (centres unmarked) [Compound 33]
Plant response rating, Sunflower (Sunflower [1]): 0
Plant response rating, Ragweed, Common [2, 17]: 30
Plant response rating, Ragweed, Common [2, 18]: 0
Plant response rating (0 to 100), Ragweed, Common ([2]; preemergence): 0
Plant response rating, Ragweed, Common [2, 19]: 0
Plant response rating, Morningglory [3, 17]: 0
Plant response rating, Morningglory [3, 18]: 0
Plant response rating (0 to 100), Morningglory ([3]; preemergence): 0
Plant response rating, Morningglory [3, 19]: 0
Plant response rating, Surinam grass [4, 17]: 100
Plant response rating, Surinam grass [4, 18]: 0
Plant response rating (0 to 100), Surinam grass ([4]; preemergence): 90
Plant response rating, Surinam grass [4, 19]: 0
Plant response rating, Corn (corn (Zea mays); [17]): 40
Plant response rating, Corn (corn (Zea mays); [18]): 0
Plant response rating (0 to 100), Corn (corn (Zea mays); preemergence): 0
Plant response rating, Corn (corn (Zea mays); [19]): 0
Plant response rating, Sunflower (Sunflower [5]; [18]): 0
Plant response rating, Sunflower (Sunflower [5]; Rate 500 g/ha, scale 0 to 100): 60
Plant response rating, Pigweed [6, 17]: 100
Plant response rating, Pigweed [6, 18]: 0
Plant response rating (0 to 100), Pigweed ([6]; preemergence): 60
Plant response rating, Pigweed [6, 19]: 0
Plant response rating, Velvetleaf [7, 17]: 0
Plant response rating, Velvetleaf [7, 18]: 0
Plant response rating (0 to 100), Velvetleaf ([7]; preemergence): 0
Plant response rating, Velvetleaf [7, 19]: 0
Plant response rating, Johnsongrass [8, 17]: 100
Plant response rating, Johnsongrass [8, 18]: 0
Plant response rating (0 to 100), Johnsongrass ([8]; preemergence): 0
Plant response rating, Johnsongrass [8, 19]: 0
Plant response rating, Soybean (soybean (Glycine max); [17]): 0
Plant response rating, Soybean (soybean (Glycine max); [18]): 0
Plant response rating (0 to 100), Soybean (soybean (Glycine max); preemergence): 0
Plant response rating, Soybean (soybean (Glycine max); [19]): 0
Plant response rating, Nutsedge [9, 17]: 0
Plant response rating, Nutsedge [9, 18]: 0
Plant response rating (0 to 100), Nutsedge ([9]; preemergence): 0
Plant response rating, Nutsedge [9, 19]: 0
Plant response rating, Bermudagrass [10, 17]: 100
Plant response rating, Bermudagrass [10, 18]: 90
Plant response rating (0 to 100 where 0 is no effect and 100 is complete control), Bermudagrass ([10]; preemergence): 100
Plant response rating, Bermudagrass [10, 19]: 100
Plant response rating, Crabgrass [11, 17]: 100
Plant response rating, Crabgrass [11, 18]: 80
Plant response rating (0 to 100), Crabgrass ([11]; preemergence): 100
Plant response rating, Crabgrass [11, 19]: 100
Plant response rating, Lambsquarters [12, 17]: 100
Plant response rating, Lambsquarters [12, 18]: 100
Plant response rating (0 to 100), Lambsquarters ([12]; preemergence): 100
Plant response rating, Lambsquarters [12, 19]: 100
Plant response rating, Cupgrass, Woolly [13, 17]: 100
Plant response rating, Cupgrass, Woolly [13, 18]: 20
Plant response rating (0 to 100), Cupgrass, Woolly ([13]; preemergence): 100
Plant response rating, Cupgrass, Woolly [13, 19]: 90
Plant response rating, Foxtail, Giant [14, 17]: 30
Plant response rating, Foxtail, Giant [14, 18]: 50
Plant response rating (0 to 100), Foxtail, Giant ([14]; preemergence): 0
Plant response rating, Foxtail, Giant [14, 19]: 100
Plant response rating, Nightshade (Nightshade; [18]): 0
Plant response rating, Nightshade (Nightshade; Rate 500 g/ha, scale 0 to 100): 100
Plant response rating, Cocklebur [15, 17]: 0
Plant response rating, Cocklebur [15, 18]: 0
Plant response rating (0 to 100), Cocklebur ([15]; preemergence): 0
Plant response rating, Cocklebur [15, 19]: 0
Plant response rating, Goosegrass [16, 17]: 100
Plant response rating, Goosegrass [16, 18]: 80
Plant response rating (0 to 100), Goosegrass ([16]; preemergence): 100
Plant response rating, Goosegrass [16, 19]: 100
Plant response rating, Kochia (kochia (Kochia scoparia); [17]): 100
Plant response rating, Kochia (kochia (Kochia scoparia); [18]): 100
Plant response rating (0 to 100), Kochia (kochia (Kochia scoparia); preemergence): 100
Plant response rating, Kochia (kochia (Kochia scoparia); [19]): 100

CC(C)(C)c1ccn(C2CCN(c3ccc(Cl)c(Cl)c3)C2=O)n1 (centres unmarked) [Compound 34]
Plant response rating, Sunflower (Sunflower [1]): 0
Plant response rating, Ragweed, Common [2, 18]: 0
Plant response rating, Ragweed, Common [2, 20]: 0
Plant response rating (0 to 100), Ragweed, Common ([2]; preemergence): 0
Plant response rating, Ragweed, Common [2, 19]: 0
Plant response rating, Morningglory [3, 18]: 0
Plant response rating, Morningglory [3, 20]: 0
Plant response rating (0 to 100), Morningglory ([3]; preemergence): 0
Plant response rating, Morningglory [3, 19]: 0
Plant response rating, Surinam grass [4, 18]: 0
Plant response rating, Surinam grass [4, 20]: 0
Plant response rating (0 to 100), Surinam grass ([4]; preemergence): 0
Plant response rating, Surinam grass [4, 19]: 0
Plant response rating, Corn (corn (Zea mays); [18]): 0
Plant response rating, Corn (corn (Zea mays); [20]): 0
Plant response rating (0 to 100), Corn (corn (Zea mays); preemergence): 0
Plant response rating, Corn (corn (Zea mays); [19]): 0
Plant response rating, Sunflower (Sunflower [5]; [18]): 0
Plant response rating, Pigweed [6, 18]: 100
Plant response rating, Pigweed [6, 20]: 0
Plant response rating (0 to 100), Pigweed ([6]; preemergence): 40
Plant response rating, Pigweed [6, 19]: 100
Plant response rating, Velvetleaf [7, 18]: 0
Plant response rating, Velvetleaf [7, 20]: 0
Plant response rating (0 to 100), Velvetleaf ([7]; preemergence): 0
Plant response rating, Velvetleaf [7, 19]: 0
Plant response rating, Johnsongrass [8, 18]: 0
Plant response rating, Johnsongrass [8, 20]: 0
Plant response rating (0 to 100), Johnsongrass ([8]; preemergence): 0
Plant response rating, Johnsongrass [8, 19]: 0
Plant response rating, Soybean (soybean (Glycine max); [18]): 0
Plant response rating, Soybean (soybean (Glycine max); [20]): 0
Plant response rating (0 to 100), Soybean (soybean (Glycine max); preemergence): 0
Plant response rating, Soybean (soybean (Glycine max); [19]): 0
Plant response rating, Nutsedge [9, 18]: 0
Plant response rating, Nutsedge [9, 20]: 0
Plant response rating (0 to 100), Nutsedge ([9]; preemergence): 0
Plant response rating, Nutsedge [9, 19]: 0
Plant response rating, Bermudagrass [10, 18]: 80
Plant response rating, Bermudagrass [10, 20]: 0
Plant response rating (0 to 100 where 0 is no effect and 100 is complete control), Bermudagrass ([10]; preemergence): 100
Plant response rating, Bermudagrass [10, 19]: 90
Plant response rating, Crabgrass [11, 18]: 60
Plant response rating, Crabgrass [11, 20]: 0
Plant response rating (0 to 100), Crabgrass ([11]; preemergence): 100
Plant response rating, Crabgrass [11, 19]: 70
Plant response rating, Lambsquarters [12, 18]: 90
Plant response rating, Lambsquarters [12, 20]: 90
Plant response rating (0 to 100), Lambsquarters ([12]; preemergence): 100
Plant response rating, Lambsquarters [12, 19]: 100
Plant response rating, Cupgrass, Woolly [13, 18]: 20
Plant response rating, Cupgrass, Woolly [13, 20]: 0
Plant response rating (0 to 100), Cupgrass, Woolly ([13]; preemergence): 80
Plant response rating, Cupgrass, Woolly [13, 19]: 20
Plant response rating, Foxtail, Giant [14, 18]: 30
Plant response rating, Foxtail, Giant [14, 20]: 30
Plant response rating (0 to 100), Foxtail, Giant ([14]; preemergence): 50
Plant response rating, Foxtail, Giant [14, 19]: 0
Plant response rating, Nightshade (Nightshade; Rate 31 g/ha, scale 0 to 100): 0
Plant response rating, Nightshade (Nightshade; [18]): 0
Plant response rating, Nightshade (Nightshade; Rate 125 g/ha, scale 0 to 100, 0 no effect, 100 complete control): 0
Plant response rating, Cocklebur [15, 18]: 0
Plant response rating, Cocklebur [15, 20]: 0
Plant response rating (0 to 100), Cocklebur ([15]; preemergence): 0
Plant response rating, Cocklebur [15, 19]: 0
Plant response rating, Goosegrass [16, 18]: 80
Plant response rating, Goosegrass [16, 20]: 20
Plant response rating (0 to 100), Goosegrass ([16]; preemergence): 100
Plant response rating, Goosegrass [16, 19]: 80
Plant response rating, Kochia (kochia (Kochia scoparia); [18]): 100
Plant response rating, Kochia (kochia (Kochia scoparia); [20]): 100
Plant response rating (0 to 100), Kochia (kochia (Kochia scoparia); preemergence): 100
Plant response rating, Kochia (kochia (Kochia scoparia); [19]): 100
